From paper PMC12091851, “Replacing a Cereblon Ligand by a DDB1 and CUL4 Associated Factor 11 (DCAF11) Recruiter Converts a Selective Histone Deacetylase 6 PROTAC into a Pan‐Degrader” (Chemmedchem, 2025)

Target: T1, HDAC6 (Homo sapiens, UniProt Q9UBN7)
T1 sequence (Q9UBN7 1-1215): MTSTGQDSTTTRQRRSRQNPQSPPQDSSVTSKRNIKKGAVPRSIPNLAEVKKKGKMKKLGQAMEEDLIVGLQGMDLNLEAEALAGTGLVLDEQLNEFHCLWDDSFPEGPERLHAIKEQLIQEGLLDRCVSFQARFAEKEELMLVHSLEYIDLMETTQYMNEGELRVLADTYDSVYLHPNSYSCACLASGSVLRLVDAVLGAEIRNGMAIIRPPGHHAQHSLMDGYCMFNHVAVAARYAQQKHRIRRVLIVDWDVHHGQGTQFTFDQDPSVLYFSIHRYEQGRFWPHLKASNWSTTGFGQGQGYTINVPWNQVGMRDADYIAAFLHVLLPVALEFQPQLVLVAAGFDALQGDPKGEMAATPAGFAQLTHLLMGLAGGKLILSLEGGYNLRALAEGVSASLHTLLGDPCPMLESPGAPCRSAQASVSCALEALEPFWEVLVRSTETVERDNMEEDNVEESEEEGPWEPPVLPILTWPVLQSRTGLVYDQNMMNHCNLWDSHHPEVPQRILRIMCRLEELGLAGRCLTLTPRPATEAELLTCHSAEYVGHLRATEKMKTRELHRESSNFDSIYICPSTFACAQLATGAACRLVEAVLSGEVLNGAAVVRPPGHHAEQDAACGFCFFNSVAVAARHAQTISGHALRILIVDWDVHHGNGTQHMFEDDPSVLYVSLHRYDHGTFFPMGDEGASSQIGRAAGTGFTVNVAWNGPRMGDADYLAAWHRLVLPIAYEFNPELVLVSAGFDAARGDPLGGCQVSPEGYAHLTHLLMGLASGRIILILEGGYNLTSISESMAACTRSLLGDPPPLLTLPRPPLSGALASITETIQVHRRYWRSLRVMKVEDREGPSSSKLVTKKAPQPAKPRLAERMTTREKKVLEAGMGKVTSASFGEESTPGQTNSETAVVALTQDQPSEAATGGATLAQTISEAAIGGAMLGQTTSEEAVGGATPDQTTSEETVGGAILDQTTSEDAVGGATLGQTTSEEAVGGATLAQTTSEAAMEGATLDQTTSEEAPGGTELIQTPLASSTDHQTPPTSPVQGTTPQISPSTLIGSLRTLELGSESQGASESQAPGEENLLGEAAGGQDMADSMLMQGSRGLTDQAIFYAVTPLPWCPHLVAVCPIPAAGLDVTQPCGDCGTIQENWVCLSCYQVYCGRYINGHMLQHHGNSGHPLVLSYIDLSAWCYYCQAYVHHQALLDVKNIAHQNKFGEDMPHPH
Test: Immunoblot HDAC6 degradation in MM.1S cell lysates
Format: cell-based
Set-up: endogenous in cells; host or cells: MM.1S
Settings: MM1.S, MM.1S cells, 24 h, read-out: maximal degradation (Dmax) HDAC6
Protocol: Figure 6 Examination of HDAC isoform degradation. MM.1S cells were treated with the indicated compounds (10 μM) or vehicle (DMSO) for 24 h. HDAC1, 2, 4, and 6 levels were analyzed by immunoblotting. (A) Representative images from a total of n=3 biological replicates.
2.5. Aqueous Stability Assay
For stability testing in aqueous solution, a 10-fold concentrated DMSO solution of the respective compounds was diluted in DPBS to generate a 10 µM concentration (final DMSO content of 10%).
Samples of the aqueous solutions were taken after 0, 24, 48, and 72 h at room temperature and the amounts of the parental compound and potential fragments were monitored by HPLC gradient A (see 3.1 General Information). The peak area of the 0 h sample was used for normalization. All compounds were tested in duplicates and GraphPad Prim was used for evaluation and data visualization.
The cell lysis was performed as descripted in 3.2. Simple Western Immunoassay. Samples were denatured by Laemmli 2× Concentrate (Catalog# S3401-10VL, Sigma-Aldrich) for 5 min at 95 °C, and […]
Bio-Rad, Hercules, CA, USA). […]
6.1 (Bio-Rad) for quantification. […]
In vitro inhibitory activities against HDAC1, 2 , and 6 were measured using a previously published protocol.[3] In vitro inhibitory activities against HDAC4 were measured using a previously published protocol with slight modifications. […]

Dmax at 10 µM [%]	SMILES
71 to 76	O=C(CCCCCCNC(=O)c1ccc(NC(=O)CCCCCCCCCCCN(C(=O)CCl)C(C(=O)NCc2ccccc2)c2ccc(Cl)c(Cl)c2)cc1)NO (centres unmarked) [Compound 1j]
26	O=C(CCCCCCNC(=O)c1ccc(N(C(=O)CCl)C(C(=O)NCc2ccccc2)c2ccc(Cl)c(Cl)c2)cc1)NO (centres unmarked) [Compound 2]
